Source: patent US20250122191A1, “COMPOUNDS AS BCL-2 INHIBITORS” (Fochon Biosciences, Ltd, priority 2021, published 2025)

Columns and labels:
[1] = test system: RS4;11-BCL-2 G101V cells; test: Cell proliferation assay (MTS), RS4;11-BCL-2 G101V engineered cells; assay type: cell-based; conditions: Homo sapiens, 120 h, read-out: RS4, 11 BCL2-G101V IC50
In short: (§1)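 Cells were plated, allowed to settle 4 h (G101V, F104L) or 24 h (D103E, D103Y), and treated with serially diluted compound (10000 down to 1.5 nM). After 120 h or 72 h respectively at 37 °C, MTS was added for 2 h and absorbance at 490 nm gave IC50 values.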

[2] = test system: RS4;11-BCL-2 F104L cells; test: Cell proliferation assay (MTS), RS4;11-BCL-2 F104L engineered cells; assay type: cell-based; conditions: Homo sapiens, 120 h, read-out: RS4, 11 BCL2-F104L IC50
In short: as §1

[3] = test system: RS4;11-BCL-2 D103E cells; test: Cell proliferation assay (MTS), RS4;11-BCL-2 D103E engineered cells; assay type: cell-based; conditions: Homo sapiens, 72 h, read-out: RS4, 11 BCL2-D103E IC50
In short: as §1

[4] = test system: Toledo cells; test: Cell proliferation assay (MTS), Toledo cells; assay type: cell-based; conditions: Homo sapiens, 72 h
In short: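 Toledo cells (RPMI-1640, 10% FBS) seeded at 30000 cells/well, rested 4 h, then exposed 72 h at 37 °C, 5% CO2 to compound at nine final concentrations, 1.5–10000 nM. Viability by MTS (2 h), absorbance at 490 nm. IC50 from the concentration-response.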

[5] = Pharmacokinetics assay in rats; assay type: in vivo; conditions: male Sprague-Dawley rats, po, 5 mg/kg, plasma
Experimental: The purpose of this study was to determine the pharmacokinetics of Examples in male Sprague-Dawley rats (Supplied by Beijing Vital River Laboratory Animal Technology Co., Ltd.) following a single intravenous bolus injection at 1 mg/kg and oral gavage (PO) administration at 5 mg/kg.
Animals in Group 1 were administered with Examples by single intravenous bolus injection at 1 mg/kg, which was formulated in 10% DMSO (Sigma, Batch #LPCOS181): 60% PEG400 (Sigma, Batch #MKCH6281): 30% water, pH 5-6 at 1 mg/mL as a solution. Animals in Group 2 were administered with Examples by single oral gavage (PO) administration at 5 mg/kg, which was formulated in 10% DMSO (Sigma, Batch #BCCD6641): 60% PEG400 (Sigma, Batch #MKCL4921): 30% water at 1 mg/mL as a solution. Blood samples were collected at 0.083, 0.25, 0.5, 1, 2, 4, 8, 12 and 24 hours post-dose. Concentrations of Examples in plasma were determined by LC/MS/MS (LC: Waters UPLC; MS: Triple Quad 6500 plus).

Row | SMILES | IC50 [1] [nM] | IC50 [2] [nM] | IC50 [3] [nM] | IC50 [4] [nM] | AUClast [5] [ng·h/mL] | Cmax/C0 [5] [ng/mL] | T1/2 [5] [h]
1 | COc1nc2[nH]cc(F)c2cc1Oc1cc(N2CCC3(CC2)CC(N2CCN(Cc4ccnc(OCCO)c4)C[C@H]2c2ccccc2C(C)C)C3)ccc1C(=O)NS(=O)(=O)c1cnc(NC[C@H]2CC[C@](C)(O)CC2)c([N+](=O)[O-])c1 [Example 64, 2-((3-fluoro-6-methoxy-1H-pyrrolo[2,3-b]pyridin-5-yl)oxy)-N-((6-((((1r,4r)-4-hydroxy-4-methylcyclohexyl)methyl)amino)-5-nitropyridin-3-yl)sulfonyl)-4-(2-((R)-4-((2-(2-hydroxyethoxy)pyridin-4-yl)methyl)-2-(2-isopropylphenyl)piperazin-1-yl)-7-azaspiro[3.5]nonan-7-yl)benzamide] | 1 | 3 | 1 | – | – | – | –
2 | COc1ccc(CN2CCN(C3CC4(CCN(c5ccc(C(=O)NS(=O)(=O)c6cnc(NC[C@H]7CC[C@](C)(O)CC7)c([N+](=O)[O-])c6)c(Oc6cnc7[nH]cc(F)c7c6)c5)CC4)C3)[C@H](c3ccccc3C(C)C)C2)cc1 [Example 71, 2-((3-fluoro-1H-pyrrolo[2,3-b]pyridin-5-yl)oxy)-N-((6-((((1r,4r)-4-hydroxy-4-methylcyclohexyl)methyl)amino)-5-nitropyridin-3-yl)sulfonyl)-4-(2-((R)-2-(2-isopropylphenyl)-4-(4-methoxybenzyl)piperazin-1-yl)-7-azaspiro[3.5]nonan-7-yl)benzamide] | 1 | 1 | 1 | 1 | – | – | –
3 | COc1nc2[nH]cc(F)c2cc1Oc1cc(N2CCC3(CC2)CC(N2CCN(C(C)C)C[C@H]2c2ccccc2C(C)C)C3)ccc1C(=O)NS(=O)(=O)c1cnc(NC[C@H]2CC[C@](C)(O)CC2)c([N+](=O)[O-])c1 [Example 99, 2-((3-fluoro-6-methoxy-1H-pyrrolo[2,3-b]pyridin-5-yl)oxy)-N-((6-((((1r,4r)-4-hydroxy-4-methylcyclohexyl)methyl)amino)-5-nitropyridin-3-yl)sulfonyl)-4-(2-((R)-4-isopropyl-2-(2-isopropylphenyl)piperazin-1-yl)-7-azaspiro[3.5]nonan-7-yl)benzamide] | 1 | 1 | 1 | – | – | – | –
4 | CC(C)c1ccccc1[C@@H]1CN(Cc2ccc(C#N)cc2)CCN1C1CC2(CCN(c3ccc(C(=O)NS(=O)(=O)c4cnc(NC[C@H]5CC[C@](C)(O)CC5)c([N+](=O)[O-])c4)c(Oc4cnc5[nH]cc(F)c5c4)c3)CC2)C1 [Example 237, 4-(2-((R)-4-(4-cyanobenzyl)-2-(2-isopropylphenyl)piperazin-1-yl)-7-azaspiro[3.5]nonan-7-yl)-2-((3-fluoro-1H-pyrrolo[2,3-b]pyridin-5-yl)oxy)-N-((6-((((1r,4r)-4-hydroxy-4-methylcyclohexyl)methyl)amino)-5-nitropyridin-3-yl)sulfonyl)benzamide] | 1 | 1 | 1 | 1 | – | – | –
5 | CC(C)c1ccccc1[C@@H]1CN(Cc2ccncc2)CCN1C1CC2(CCN(c3ccc(C(=O)NS(=O)(=O)c4cnc(NC[C@H]5CC[C@](C)(O)CC5)c([N+](=O)[O-])c4)c(Oc4cnc5[nH]cc(F)c5c4)c3)CC2)C1 [Example 240, 2-((3-fluoro-1H-pyrrolo[2,3-b]pyridin-5-yl)oxy)-N-((6-((((1r,4r)-4-hydroxy-4-methylcyclohexyl)methyl)amino)-5-nitropyridin-3-yl)sulfonyl)-4-(2-((R)-2-(2-isopropylphenyl)-4-(pyridin-4-ylmethyl)piperazin-1-yl)-7-azaspiro[3.5]nonan-7-yl)benzamide] | 1 | 1 | 3 | 1 | – | – | –
6 | COc1nc2[nH]cc(F)c2cc1Oc1cc(N2CCC3(CC2)CC(N2CCN(Cc4ccc(OC)c5oc(C)nc45)C[C@H]2c2ccccc2C(C)C)C3)ccc1C(=O)NS(=O)(=O)c1cnc(NC[C@H]2CC[C@](C)(O)CC2)c([N+](=O)[O-])c1 [Example 245, 2-((3-fluoro-6-methoxy-1H-pyrrolo[2,3-b]pyridin-5-yl)oxy)-N-((6-((((1r,4r)-4-hydroxy-4-methylcyclohexyl)methyl)amino)-5-nitropyridin-3-yl)sulfonyl)-4-(2-((R)-2-(2-isopropylphenyl)-4-((7-methoxy-2-methylbenzo[d]oxazol-4-yl)methyl)piperazin-1-yl)-7-azaspiro[3.5]nonan-7-yl)benzamide] | 1 | 1 | 1 | 1 | – | – | –
7 | COc1nc(CN2CCN(C3CC4(CCN(c5ccc(C(=O)NS(=O)(=O)c6cnc(NC[C@H]7CC[C@](C)(O)CC7)c([N+](=O)[O-])c6)c(Oc6cnc7[nH]cc(F)c7c6)c5)CC4)C3)[C@H](c3ccccc3C(C)C)C2)ccc1C1CC1 [Example 291, 4-(2-((R)-4-((5-cyclopropyl-6-methoxypyridin-2-yl)methyl)-2-(2-isopropylphenyl)piperazin-1-yl)-7-azaspiro[3.5]nonan-7-yl)-2-((3-fluoro-1H-pyrrolo[2,3-b]pyridin-5-yl)oxy)-N-((6-((((1r,4r)-4-hydroxy-4-methylcyclohexyl)methyl)amino)-5-nitropyridin-3-yl)sulfonyl)benzamide] | – | 1 | 1 | 1 | – | – | –
8 | CC(C)c1ccccc1[C@@H]1CN(Cc2ccc3c(c2)CCO3)CCN1C1CC2(CCN(c3ccc(C(=O)NS(=O)(=O)c4cnc(NC[C@H]5CC[C@](C)(O)CC5)c([N+](=O)[O-])c4)c(Oc4cnc5[nH]cc(F)c5c4)c3)CC2)C1 [Example 324, 4-(2-((R)-4-((2,3-dihydrobenzofuran-5-yl)methyl)-2-(2-isopropylphenyl)piperazin-1-yl)-7-azaspiro[3.5]nonan-7-yl)-2-((3-fluoro-1H-pyrrolo[2,3-b]pyridin-5-yl)oxy)-N-((6-((((1r,4r)-4-hydroxy-4-methylcyclohexyl)methyl)amino)-5-nitropyridin-3-yl)sulfonyl)benzamide] | 1 | 1 | 1 | 1 | – | – | –
9 | COc1nc2[nH]cc(F)c2cc1Oc1cc(N2CCC3(CC2)CC(N2CCN(Cc4ccc(S(C)(=O)=O)cc4)C[C@H]2c2ccccc2C(C)C)C3)ccc1C(=O)NS(=O)(=O)c1cnc(NC[C@H]2CC[C@](C)(O)CC2)c([N+](=O)[O-])c1 [Example 327, 2-((3-fluoro-6-methoxy-1H-pyrrolo[2,3-b]pyridin-5-yl)oxy)-N-((6-((((1r,4r)-4-hydroxy-4-methylcyclohexyl)methyl)amino)-5-nitropyridin-3-yl)sulfonyl)-4-(2-((R)-2-(2-isopropylphenyl)-4-(4-(methylsulfonyl)benzyl)piperazin-1-yl)-7-azaspiro[3.5]nonan-7-yl)benzamide] | – | 1 | 1 | 1 | – | – | –
10 | COc1nc2[nH]cc(F)c2cc1Oc1cc(N2CCC3(CC2)CC(N2CCN(C[C@@H]4COCCO4)C[C@H]2c2ccccc2C(C)C)C3)ccc1C(=O)NS(=O)(=O)c1cnc(NC[C@H]2CC[C@](C)(O)CC2)c([N+](=O)[O-])c1 [Example 334, 4-(2-((R)-4-(((R)-1,4-dioxan-2-yl)methyl)-2-(2-isopropylphenyl)piperazin-1-yl)-7-azaspiro[3.5]nonan-7-yl)-2-((3-fluoro-6-methoxy-1H-pyrrolo[2,3-b]pyridin-5-yl)oxy)-N-((6-((((1r,4r)-4-hydroxy-4-methylcyclohexyl)methyl)amino)-5-nitropyridin-3-yl)sulfonyl)benzamide] | 1 | 1 | 1 | 1 | – | – | –
11 | CC(C)c1ccccc1[C@@H]1CN(C)CCN1C1CC2(CCN(c3ccc(C(=O)NS(=O)(=O)c4cnc(NCC5CCC(C)(O)CC5)c([N+](=O)[O-])c4)c(Oc4cnc5[nH]ccc5c4)c3)CC2)C1 (stereo partly drawn) [Reference Compound 1, (R)-2-((1H-pyrrolo[2,3-b]pyridin-5-yl)oxy)-N-((6-(((4-hydroxy-4-methylcyclohexyl)methyl)amino)-S-nitropyridin-3-yl)sulfonyl)-4-(2-(2-(2-isopropylphenyl)-4-methylpiperazin-1-yl)-7-azaspiro[3.5]nonan-7-yl)benzamide, reference compound] | – | – | – | – | 128 | 49.9 | 1.16
